Measured values taken from patent publication US20210113540A1, “TREATMENT AGENT AND PHARMACEUTICAL COMPOSITION FOR GLIOMA” (NATIONAL UNIVERSITY CORPORATION HOKKAIDO UNIVERSITY, priority 2018, published 2021).

Key:
[1] = test system: SOX2 in GICs (E6); assay: SOX2 immunostaining, SOX2/DAPI positive rate in GICs (E6); assay type: cell-based, human
Method: The extranuclear elimination of compound 8-dependent SOX2 is dependent on the extranuclear transport factor, Exportin (also known as CRM1). The cells were cultured for one day in the presence of Compound 8 (10 μM) and a CRM1-specific inhibitor leptomycin B (LMB, 150 nM), and GICs were immunostained with the SOX2 antibody. As a result, the SOX2/DAPI positive rate in GICs (E6) was as follows: Control: 95±2%, supplemented with Compound 8: 7±3%, supplemented with Compound 8+LMB: 87±9%; the SOX2/DAPI positive rate in GICs (E16) was as follows: Control: 72±11%, supplemented with compound 8: 0.5±1%, supplemented with Compound 8+LMB: 81±10%. The addition of LMB suppressed Compound 8-dependent extranuclear elimination of SOX2.
When UDP-GlcNAc was added after the chemical was added to GIC, reduced SOX2 expression in GICs and the cytotoxic activity of Compound 8 on GICs were neutralized (FIGS. 3 and 4). SOX2 K75A in which lysine 75 involved in the binding of CRM1 and SOX2 was substituted with alanine and SOX2 S248A in which the 0-GlcNAcylation target serine 248 was substituted with alanine were prepared, thereby establishing GICs that constitutively express these SOX2 mutants and wild-type SOX2 (SOX2 wt). After treatment with Compound 8, the localization of SOX2 was examined by immunostaining using an anti-FLAG antibody, and the viability of GICs expressing these mutants was examined by MTT assay (FIG. 5). In the presence of Compound 8, SOX2 K75A was present in the nucleus and partially neutralized the cytotoxic activity of Compound 8. SOX2 S248A was not retained in the nucleus by treatment with Compound 8, and no inhibitory effect on cytotoxic activity was observed. […] The SOX2/DAPI positive rate was as follows: GIC (E6): Control: 0%, SOX2 wt: 36±5%, SOX2 K75A: 63±5%, SOX2 S248A: 18±2%; GIC (E16): Control: 0%, SOX2 wt: 22±4%, SOX2 K75A: 58±6%, SOX2 S248A: 15±3%. Error bar: ±SD. Statistical processing is t-test. *P<0.05, **P<0.01, ***P<0.001. GIC was cultured for 2 days with Compound 8 (10 μmol/L) alone or together with UDP-GlcNAc (1 mmol/L), and immunostaining was performed for SOX2 and NESTIN. As a result, the addition of UDP-GlcNAc suppressed Compound 8-dependent extranuclear elimination of SOX2.
OSMI-1, which is an O-GlcNAc transferase (OGT)-specific inhibitor, suppresses GIC growth and SOX2 expression. (A) GICs were cultured for 3 days in the presence of various concentrations of OSMI-1, and cell growth was examined using MTT assay (FIG. 6). (B) The results of immunostaining for SOX2 and NESTIN using GICs cultured for 2 days in the presence of 20 μmol/L OSMI-1 and calculating the SOX2 positive rate (SOX2/DAPI) are shown below.

[2] = test system: Temozolomide-resistant E6 (E6R); assay: Xenograft model, subcutaneous E6R in NOD/SCID mice; assay type: in vivo
Method: Temozolomide-resistant E6 (E6R, 1×10^6) was subcutaneously transplanted into NOD/SCID mice (n=6), and Compound 8 (1.0 mg/kg) was orally administered for 11 consecutive days after the long diameter and short diameter of tumor became 5 to 6 mm. […] The size of tumor was calculated as (long diameter)×(short diameter)^2/2. Tumors were excised from Compound 8 treated mice and control mice on Day 12 from the start of oral administration of Compound 8 and fixed with 4% paraformaldehyde, followed by preparation of frozen sections. As a result, tumor cell aggregates disappeared by treatment with Compound 8.

[3] = after treatment with Compound 8, anti-FLAG immunostaining
[4] = 1.0 mg/kg orally, tumors excised on Day 12

O=C(O)c1cc(C2CC2)cnc1Nc1ccc2c(ccn2-c2ccccc2)c1 [Compound 8, 5-cyclopropyl-2-((1-phenyl-1H-indole-5-yl)amino)nicotinic acid]
SOX2/DAPI positive rate in GICs (E6) ([1]; Compound 8 10 μM, LMB 150 nM where added, cultured one day, control 95±2%): 7±3%
SOX2/DAPI positive rate, GIC (E6) expressing SOX2 K75A [1, 3]: 63±5%
SOX2/DAPI positive rate, GIC (E6) expressing SOX2 S248A [1, 3]: 18±2%
SOX2/DAPI positive rate, GIC (E6) expressing SOX2 wt [1, 3]: 36±5%
tumor growth (size of tumor) ([2]; 1.0 mg/kg orally for 11 consecutive days, FIG. 2): reduced tumor growth
SOX2 in the mouse tumor tissue [2, 4]: disappearance of SOX2
tumor cell aggregates in excised tumor sections [2, 4]: disappeared
